For the assay, the target named is T1, NLRP3 inflammasome (Homo sapiens, UniProt Q96P20).
T1 construct: freshly isolated from human peripheral blood from healthy donors; StemCells Technologies; host or cells: primary human PBMCs
The experiment in a line: NLRP3 inflammasome activation assay in LPS-primed, nigericin-stimulated PBMCs, IL-1β release. Particulars: 10 μM nigericin. In kind it is cell-based. On the procedure:
Some of the following assays were used to determine the inhibitory activity of the compounds on the NLRP3 inflammasome using a common inflammasome activation stimuli-nigericin.
Human peripheral blood mononuclear cells (PBMCs), consisting of lymphocytes (T, B and NK cells), monocytes and dendritic cells, are freshly isolated from human peripheral blood from healthy donors. Cells are obtained through an IRB approved donor program by iXCells Biotechnologies where all the donors are tested for bacterial and viral infections. Cells are purified from peripheral blood using ficoll gradient centrifugation.
Fresh or cryopreserved PMBCs are seeded in V-bottom 96-well plate at 0.5-1×10^5 cells per well and incubated overnight at 37° C. with 5% CO2 in RPMI 1640 medium with GlutaMAX supplement, 4.5 g/L D-glucose, 10% Fetal Bovine Serum (FBS), […] Sodium Pyruvate, 1% Penicillin/Streptomycin, 10 mM HEPES and 0.05 mM of […]. Freshly isolated or cryopreserved KCs cells are seeded in flat-bottom 96-well plates at 0.6-1.5×10^5 cells/well and incubated overnight at 37° C., 5% CO2 in RPMI 1640 Medium with GlutaMAX supplement, FBS, 1% Penicillin/Streptomycin and 10 mM HEPES. The following day, the cells are primed with 100 ng/mL of lipopolysaccharides (LPS; Sigma Aldrich) in FBS-free RPMI 1640 for 3 h. After the priming step, the media is removed and PBMCs are pre-incubated with serial concentrations of test compounds (0.00017-10 uM) or vehicle (DMSO) for 30 min in FBS-free media prior to addition of the NLRP3 activator. Cells are then stimulated with 10 μM Nigericin (Sigma Aldrich; InvivoGen) for 1.5 h. Plates were centrifuged at 1,500 rpm for 3 minutes to pellet cells and supernatant was transferred into new plates for subsequent experiments.
For ELISA assays cells are seeded into 96-well plates. Post study, supernatants are removed and the levels of mature IL-1β, IL18 and TNFα (Quantikine ELISA, R&D systems) are measured in cell conditioned media by ELISA according to manufacturer's instructions.
Human frozen PBMCs were purchased from StemCells Technologies. Cells were rapidly thawed in 37° C. water bath and resuspended in fresh assay media consisting of RPMI 1640 Medium containing 1% sodium pyruvate, 10 mM HEPES, 2.5 g/L glucose and 55 μM 2-Mercaptoethanol. Cell density was adjusted to 8.1×10^5 cells/mL. Cells were primed by adding lipopolysaccharide (Invivogen Ultrapure lipopolysaccharide from E. coli, tlrl-3pelps) at a final concentration of 100 ng/mL in cell suspension. 37 μL of cell suspension with LPS was seeded per well of a 384 well plate and incubated for 3 hours at 37° C. and 5% CO2. After priming, PBMCs were preincubated with serially diluted test compounds with starting concentration of 40 μM followed by 2-fold dilution for a 20-point curve or vehicle (DMSO) for 30 min in assay media at 37° C. and 5% CO2. Cells were then stimulated with 10 μM nigericin (Invivogen, tlrl-nig-5) for 90 min at 37° C. and 5% CO2 to activate NLRP3 dependent inflammasome pathway and IL-1β release in cell culture supernatant. Cells were centrifuged at 1200 RPM for 1 min and 40 μL of supernatant was transferred into fresh plates and stored at −80° C. until IL-1β analysis.
16 μL of supernatant was added to white 384 well HTRF plates, followed by addition of 4 μL of HTRF cocktail in each well. Plates were quickly centrifuged, sealed and incubated overnight at room temperature. Next day, HTRF signal was read on a Pherastar and ratio of 665/620 was calculated based on manufacturer's protocol to obtain concentration of IL-1β in cell culture supernatant.

Where [1] appears, read: PBMC, LPS priming, read-out: PMBC IL-1β IC50.
[2] abbreviates: LPS 100 ng/mL priming, read-out: IL-1B pIC50 (converted).
[3] abbreviates: IL-1B pIC50 (μM), LPS 100 ng/mL priming.

Where two headings read alike, the source gives them in different places.

T1 sequence (Q96P20 whole entry): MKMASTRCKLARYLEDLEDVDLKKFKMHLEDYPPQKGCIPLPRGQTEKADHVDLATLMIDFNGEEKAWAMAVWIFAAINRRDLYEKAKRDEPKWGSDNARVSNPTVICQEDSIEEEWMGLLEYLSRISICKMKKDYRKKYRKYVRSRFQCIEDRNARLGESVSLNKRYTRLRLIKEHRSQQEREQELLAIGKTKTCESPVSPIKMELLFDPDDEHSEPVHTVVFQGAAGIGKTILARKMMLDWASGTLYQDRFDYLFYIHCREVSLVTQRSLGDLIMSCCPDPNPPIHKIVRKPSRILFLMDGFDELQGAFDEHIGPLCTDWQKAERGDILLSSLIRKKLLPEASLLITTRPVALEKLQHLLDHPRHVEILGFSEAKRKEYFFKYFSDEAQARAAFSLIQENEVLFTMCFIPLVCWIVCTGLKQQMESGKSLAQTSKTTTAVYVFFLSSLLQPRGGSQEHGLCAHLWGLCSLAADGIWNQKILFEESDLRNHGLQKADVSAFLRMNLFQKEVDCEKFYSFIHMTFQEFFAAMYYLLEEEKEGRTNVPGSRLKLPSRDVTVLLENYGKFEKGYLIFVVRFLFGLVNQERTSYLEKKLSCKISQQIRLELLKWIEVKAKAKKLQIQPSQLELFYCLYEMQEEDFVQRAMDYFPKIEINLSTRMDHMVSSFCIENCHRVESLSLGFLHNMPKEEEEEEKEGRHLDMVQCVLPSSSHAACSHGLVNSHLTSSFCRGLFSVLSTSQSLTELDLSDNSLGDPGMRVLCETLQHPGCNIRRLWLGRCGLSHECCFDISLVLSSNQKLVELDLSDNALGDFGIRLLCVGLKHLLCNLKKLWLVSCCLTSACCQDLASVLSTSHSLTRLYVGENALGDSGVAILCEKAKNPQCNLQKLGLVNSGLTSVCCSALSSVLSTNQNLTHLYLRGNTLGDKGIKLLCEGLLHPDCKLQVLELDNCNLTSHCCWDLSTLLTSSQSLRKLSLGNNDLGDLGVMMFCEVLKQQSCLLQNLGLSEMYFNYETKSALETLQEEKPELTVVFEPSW

On to `CC(C)(C)c1cc(NC(=O)NS(=O)(=O)c2cnn3c2OCCC3)n(C(C)(C)C)n1` [Example 36, N-((1,3-di-tert-butyl-1H-pyrazol-5-yl)carbamoyl)-6,7-dihydro-5H-pyrazolo[5,1-b][1,3]oxazine-3-sulfonamide, ammonia], for which the IC50 under setting [1] was > 10 µM.
For `O=C(NC1CCOc2ccccc21)NS(=O)(=O)c1cnn2c1OCCC2` (racemic) [Example 9, N-(chroman-4-ylcarbamoyl)-6,7-dihydro-5H-pyrazolo[5,1-b][1,3]oxazine-3-sulfonamide], the IC50 under setting [1] was > 10 µM.
On to `O=C(NN1CCCCCC1)NS(=O)(=O)c1cnn2c1OCCC2` [drawing 379], for which, under setting [2], the IC50 was > 10 µM.
Still for that read-out and setting: with `O=C(NC1c2ccccc2-c2ccccc21)NS(=O)(=O)c1cnn2c1OCCC2` [drawing 370] the figure was > 10 µM; with `CC(C)(C)c1cc(NC(=O)NS(=O)(=O)c2cnn3c2OCCC3)n(C(C)(C)C)n1` [drawing 403], > 10 µM.
Take `C=C(C)c1cncc(C(=C)C)c1NC(=O)NS(=O)(=O)c1cnn2c1OCCC2` [drawing 392]: the IC50 under setting [2] is > 10 µM.
With `CC1(C)CCc2ccccc2C1NC(=O)NS(=O)(=O)c1cnn2c1OCCC2` (stereo not shown) [drawing 366], the IC50 under setting [2] was > 10 µM.
`CC1Cc2ccccc2C1NC(=O)NS(=O)(=O)c1cnn2c1OCCC2` (stereo not shown) [drawing 371]: under setting [2], the IC50 is > 10 µM.
Turning to `Cc1ccc(Br)c(NC(=O)NS(=O)(=O)c2cnn3c2OCCC3)n1` [Example 20, N-((3-bromo-6-methylpyridin-2-yl)carbamoyl)-6,7-dihydro-5H-pyrazolo[5,1-b][1,3]oxazine-3-sulfonamide], the IC50 under setting [1] was > 10 µM.
Consider `CC(C)(C)c1cc(C(C)(C)C)nc(NC(=O)NS(=O)(=O)c2cnn3c2OCCC3)n1` [drawing 387], for which, under setting [2], the IC50 is > 10 µM.
For `O=C(Nc1c2c(n3c1CCC3)CCCC2=O)NS(=O)(=O)c1cnn2c1OCCC2` [Example 29, N-((8-oxo-2,3,5,6,7,8-hexahydro-1H-pyrrolo[1,2-a]indol-9-yl)carbamoyl)-6,7-dihydro-5H-pyrazolo[5,1-b][1,3]oxazine-3-sulfonamide], under setting [1], the IC50 is > 10 µM.
Take `CC1CCCC(C)N1NC(=O)NS(=O)(=O)c1cnn2c1OCCC2` (stereo not shown): the IC50 under setting [2] was > 10 µM.
Regarding `O=C(Nc1nc(-c2ccccc2)cc2c1CCC2)NS(=O)(=O)c1cnn2c1OCCC2` [drawing 388], the IC50 under setting [2] was > 10 µM.
On to `CC1(C)CCc2ccccc2C1NC(=O)NS(=O)(=O)c1cnn2c1OCCC2` (stereo not shown) [Example 1, N-((2,2-dimethyl-1,2,3,4-tetrahydronaphthalen-1-yl)carbamoyl)-6,7-dihydro-5H-pyrazolo[5,1-b][1,3]oxazine-3-sulfonamide], for which the IC50 under setting [1] was > 10 µM.
Consider `O=C(Nc1c2c(n3c1CCC3)CCCC2=O)NS(=O)(=O)c1cnn2c1OCCC2` [drawing 395], for which the IC50 under setting [2] is > 10 µM.
As to `O=C(Nc1c(-c2ccccc2)nc2ccccn12)NS(=O)(=O)c1cnn2c1OCCC2` [Example 10, N-((2-phenylimidazo[1,2-a]pyridin-3-yl)carbamoyl)-6,7-dihydro-5H-pyrazolo[5,1-b][1,3]oxazine-3-sulfonamide], the IC50 under setting [1] was > 10 µM.
For the compound `CC(C)c1nn(C)c(C(C)C)c1NC(=O)NS(=O)(=O)c1cnn2c1OCCC2` [drawing 391], the IC50 under setting [2] is 1 to 10 µM.
For the compound `O=C(NN1CCOc2ccccc21)NS(=O)(=O)c1cnn2c1OCCC2`, under setting [2], the IC50 is > 10 µM.
With `O=C(Nc1c(-c2ccccc2)nc2ccccn12)NS(=O)(=O)c1cnn2c1OCCC2` [drawing 375], under setting [2], the IC50 is > 10 µM.
For `O=C(Nc1nc(Cl)cc(Cl)n1)NS(=O)(=O)c1cnn2c1OCCC2` [drawing 369], the IC50 under setting [2] is > 10 µM.
For `O=C(NN1CCCCCC1)NS(=O)(=O)c1cnn2c1OCCC2` [Example 14, N-(azepan-1-ylcarbamoyl)-6,7-dihydro-5H-pyrazolo[5,1-b][1,3]oxazine-3-sulfonamide], the IC50 under setting [1] was > 10 µM.
With `Cc1cc(NC(=O)NS(=O)(=O)c2cnn3c2OCCC3)n(C(C)C)n1` [Example 43, N-((1-isopropyl-3-methyl-1H-pyrazol-5-yl)carbamoyl)-6,7-dihydro-5H-pyrazolo[5,1-b][1,3]oxazine-3-sulfonamide], the IC50 under setting [1] is > 10 µM.
For the compound `C=C(C)c1cncc(C(=C)C)c1NC(=O)NS(=O)(=O)c1cnn2c1OCCC2` [Example 27, N-((3,5-di(prop-1-en-2-yl)pyridin-4-yl)carbamoyl)-6,7-dihydro-5H-pyrazolo[5,1-b][1,3]oxazine-3-sulfonamide], the IC50 under setting [1] was > 10 µM.
As for `CC1CCCC(C)N1NC(=O)NS(=O)(=O)c1cnn2c1OCCC2` (mixture of isomers) [Example 7, N-((2,6-dimethylpiperidin-1-yl)carbamoyl)-6,7-dihydro-5H-pyrazolo[5,1-b][1,3]oxazine-3-sulfonamide], the IC50 under setting [1] is > 10 µM.
On the same count and under the same terms, the same measure for `O=C(NC(c1ccccc1)c1ccccc1)NS(=O)(=O)c1cnn2c1OCCC2` [Example 15, N-(benzhydrylcarbamoyl)-6,7-dihydro-5H-pyrazolo[5,1-b][1,3]oxazine-3-sulfonamide]: > 10 µM.
Consider `COc1cc(OC)nc(NC(=O)NS(=O)(=O)c2cnn3c2OCCC3)n1` [drawing 383], for which, under setting [3], the IC50 is > 10 µM.
In the case of `COc1cc(C)nc(NC(=O)NS(=O)(=O)c2cnn3c2OCCC3)n1` [drawing 384], the IC50 under setting [3] was > 10 µM.
In the case of `O=C(NN1CC2CCCC2C1)NS(=O)(=O)c1cnn2c1OCCC2` (single isomer, unassigned) [Example 13a, N-((hexahydrocyclopenta[c]pyrrol-2(1H)-yl)carbamoyl)-6,7-dihydro-5H-pyrazolo[5,1-b][1,3]oxazine-3-sulfonamide], the IC50 under setting [1] was > 10 µM.
As to `O=C(NC1c2ccccc2-c2ccccc21)NS(=O)(=O)c1cnn2c1OCCC2` [Example 5, N-((9H-fluoren-9-yl)carbamoyl)-6,7-dihydro-5H-pyrazolo[5,1-b][1,3]oxazine-3-sulfonamide], the IC50 under setting [1] was > 10 µM.
Regarding `Cc1cc(C2CC2)nc(NC(=O)NS(=O)(=O)c2cnn3c2OCCC3)n1` [drawing 386], the IC50 under setting [2] is > 10 µM.
Regarding `O=C(NC1c2ccccc2CC12CCOCC2)NS(=O)(=O)c1cnn2c1OCCC2` (stereo not shown) [drawing 367], under setting [2], the IC50 was > 10 µM.
Consider `CC1(C)COc2c(S(=O)(=O)NC(=O)NC3CCCCc4ccccc43)cnn2C1` (stereo not shown) [Example 46, 6,6-dimethyl-N-((6,7,8,9-tetrahydro-5H-benzo[7]annulen-5-yl)carbamoyl)-6,7-dihydro-5H-pyrazolo[5,1-b][1,3]oxazine-3-sulfonamide], for which the IC50 under setting [1] was > 10 µM.
On the same count and under the same terms, with `O=C(NC1(c2ccccc2)CCCCCC1)NS(=O)(=O)c1cnn2c1OCCC2` [Example 12, N-((1-phenylcycloheptyl)carbamoyl)-6,7-dihydro-5H-pyrazolo[5,1-b][1,3]oxazine-3-sulfonamide] the figure was > 10 µM.
For `Cc1ccc(Br)c(NC(=O)NS(=O)(=O)c2cnn3c2OCCC3)n1` [drawing 385], the IC50 under setting [2] was > 10 µM.
Regarding `O=C(NC(c1ccccc1)c1ccccc1)NS(=O)(=O)c1cnn2c1OCCC2` [drawing 380], the IC50 under setting [2] was > 10 µM.
For `Cc1cc(C)nc(NC(=O)NS(=O)(=O)c2cnn3c2OCCC3)n1` [drawing 390], the IC50 under setting [2] is > 10 µM.
Regarding `CC1(C)COc2c(S(=O)(=O)NC(=O)NC3CCCCc4ccccc43)cnn2C1` (stereo not shown) [drawing 413], the IC50 under setting [2] is > 10 µM.
On to `CC(C)c1cc(Cl)nc(NC(=O)NS(=O)(=O)c2cnn3c2OCCC3)n1` [drawing 381], for which the IC50 under setting [2] is > 10 µM.
Still for that read-out and setting: with `O=C(Nc1nc(-c2ccccc2)cc(C(F)(F)F)n1)NS(=O)(=O)c1cnn2c1OCCC2` [drawing 382] the figure was > 10 µM; with `O=C(NN1CC2CCCC2C1)NS(=O)(=O)c1cnn2c1OCCC2` (stereo not shown), > 10 µM.

For the origin of these results see patent US11560391B2, “Sulfonylurea compounds as inhibitors of interleukin-1 activity” (Genentech, Inc., priority 2018, dated 2023).
